Source: patent US20070248646A1, “Use of azurocidin inhibitors in prevention and treatment of ocular vascular leakage” (priority 2006, published 2007)

Target: T1, human neutrophil azurocidin (Homo sapiens, UniProt P20160)
T1 construct: purchased Athens Research and Biotechology, Atlanta, Ga
T1 sequence (P20160 27-248): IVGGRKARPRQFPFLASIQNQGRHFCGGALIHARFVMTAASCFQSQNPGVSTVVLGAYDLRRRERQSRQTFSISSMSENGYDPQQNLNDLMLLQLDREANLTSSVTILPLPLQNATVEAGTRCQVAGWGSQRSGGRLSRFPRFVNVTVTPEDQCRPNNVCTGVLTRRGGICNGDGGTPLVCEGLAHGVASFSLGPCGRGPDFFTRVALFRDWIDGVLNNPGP
Experiment: Suppression of azurocidin-induced BRB breakdown (Evans Blue)
Format: in vivo, Brown Norway rats
Method: This study employed Brown Norway rats, AZ (1 μg, 10 μg, 20 μg), PBS, aprotinin, VEGF164, and polyclonal anti-AZ antibody (1 μg). Briefly, Brown Norway rats received intravitreal injections of AZ (1 μg, 10 μg and 20 μg) in one eye and PBS in the contralateral eye. BRB breakdown was quantified using the Evans Blue (EB) technique at 1 hour, 3 hours, and 24 hours after intravitreal injection of AZ or PBS. To assess whether AZ induced retinal leukostasis, firm leukocyte adhesion was quantified at 3 hours and 24 hours post AZ injection (10 μg) using the ex vivo conconavalin leukostasis assay. To block AZ, rats were treated with a single intravenous injection of aprotinin (30,000KIU), prior to the intravitreal injections. To investigate whether AZ was involved in VEGF-induced BRB breakdown, rats received intravitreal injections of 50 ng recombinant mouse VEGF164 in one eye and PBS in the other eye and were treated intravenously with aprotinin (50,000KIU every eight hours) or polyclonal anti-AZ antibody (1 μg). BRB breakdown and retinal leukostasis were quantified 24 hours after VEGF injection.
In a second group, the rats were additionally treated intravenously with the azurocidin inhibitor, aprotinin (Trasylol®, Bayer Pharmaceuticals). […] The retinas were analyzed one hour after azurocidin administration using the Evans Blue technique.
Retinal vascular permeability was quantified as previously described (Qaum et al. (2002) supra, Xu et al. (2001) INVEST. OPHTHALMOL. VIS. SCI. 42; 789-94). […] The background-subtracted absorbance was determined by measuring each sample at 620 nm (the absorbance maximum for Evans blue dye in formamide) and 740 nm (the absorbance minimum) with a spectrophotometer. The concentration of dye in the plasma was calculated from a standard curve of Evans blue dye in formamide. […] The background-subtracted absorbance was determined by measuring each sample at 620 nm (the absorbance maximum for Evans blue dye in formamide) and 740 nm (the absorbance minimum). The concentration of dye in the extracts was calculated from a standard curve of Evans blue dye in formamide. […]

block of AZ-induced leakage (single i.v. 30,000KIU 1 hour before intravitreal azurocidin 20 μg, Evans Blue 1 hour later): greater than 98%
Evans Blue retinal leakage in AZ-injected eyes (single i.v. 30,000KIU 1 hour before intravitreal azurocidin, AZ alone 45±17): 6±0.64 μl plasma/g retina/h
Substance: aprotinin
basal levels of retinal vascular leakage (aprotinin treatment alone (PBS-injected eye)): did not affect basal levels of retinal vascular leakage
